We go through 28 compounds from patent publication US12239643B2, “Therapeutic agent for inflammatory diseases, autoimmune diseases, fibrotic diseases, and cancer diseases” (MEIJI SEIKA PHARMA CO., LTD., priority 2018, dated 2025).

The subject of one data set is PDE4. Nature of the data set: Evaluation of PDE4 inhibitory activity, scintillation proximity assay. Type of data set: biochemical. To be noted: scintillation proximity assay; read-out: PDE4 Inhibitory Activity (Evaluation 1; concentration for the inhibition rate of 50%). In outline:
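SPA with [2,8-3H]-cAMP and diluted PDE4 enzyme preparation in 50 mM Tris-HCl pH 7.4, 8.3 mM MgCl2, 1.7 mM EGTA, 3 mg/mL BSA, 120 min at room temperature. Product captured on ZnSO4-containing YSi-SPA beads, scintillation counted; IC50 from inhibition curves vs DMSO control and no-enzyme blank.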

Data set [1] is described as follows: Hepatic metabolic stability (rat liver microsome method). In kind it is in vitro ADME. Particulars: rat liver microsomes 0.5 mg/mL, test substance 1 μM, NADPH 1 mM, 37° C., 30 minutes. How it is done: Metabolic stability in rat liver microsomes was evaluated by the following method. First, in 100 mM of potassium phosphate buffer solution (pH 7.4), liver microsomes (concentration at reaction: 0.5 mg/mL) and the test substance (concentration at reaction: 1 μM) were preincubated at 37° C. Five minutes later, 100 mM of potassium phosphate buffer (pH 7.4) solution of NADPH (concentration at reaction: 1 mM) was mixed thereto to start the reaction. After a predetermined time passed, acetonitrile was mixed to the reaction mixture to stop the reaction. Here, the reaction time was 0 and 30 minutes, and drug concentration measurement was performed for each time period using LC-MS. The % remaining value of the test compound was calculated from the value for 0 minutes and the value for 30 minutes, using the calculation formula below: % Remaining=(Value for 30 Minutes/Value for 0 Minutes)×100
The results of measuring the rat liver microsome metabolic Stability (% remaining for 30-minute reaction) for the test compound by the above method were evaluated in accordance with the following evaluated basis; A: a % remaining rate of 75% or more, B: 60% or more and less than 75%, C: 45% or more and less than 60%, and D: less than 45%.
(Microsomes from liver hold many membrane-bound enzymes, among them those of drug oxidation.)

`CC(O)(CO)C(F)(F)Oc1ccc(-c2nccs2)c2oc(N3CC4CC(C3)N4)nc12` (racemic) [Example 326, 3-((2-(3,6-Diazabicyclo[3.1.1]heptan-3-yl)-7-(thiazol-2-yl)benzo[d]oxazol-4-yl)oxy)-3,3-difluoro-2-methylpropane-1,2-diol]: the IC50 in the data set on PDE4 is less than 100 nM. Besides, the “Residual ratio (% remaining for 30-minute reaction)” value in data set [1] was “A (A: a % remaining rate of 75% or more)”.

In the case of `CC(O)(CO)C(F)(F)Oc1ccc(-c2nccs2)c2oc(N3CC4CC(C3)N4)nc12` (single isomer, unassigned) [Example 364, 3-((2-(3,6-Diazabicyclo[3.1.1]heptan-3-yl)-7-(thiazol-2-yl)benzo[d]oxazol-4-yl)oxy)-3,3-difluoro-2-methylpropane-1,2-diol], the IC50 with PDE4 is less than 100 nM. Moreover, the “Residual ratio (% remaining for 30-minute reaction)” value in data set [1] was “A (A: a % remaining rate of 75% or more)”. On the same counts, the results for `CC(O)(CO)C(F)(F)Oc1ccc(-c2nccs2)c2oc(N3CC4CC(C3)N4)nc12` (single isomer, unassigned) [Example 365, 3-((2-(3,6-Diazabicyclo[3.1.1]heptan-3-yl)-7-(thiazol-2-yl)benzo[d]oxazol-4-yl)oxy)-3,3-difluoro-2-methylpropane-1,2-diol] are less than 100 nM and “A (A: a % remaining rate of 75% or more)”. For the compound `CC(O)C(F)(F)Oc1ccc(-c2nccs2)c2oc(N3CC4CC(C3)N4O)nc12` (single isomer, unassigned) [Example 372, 3-(4-(1,1-Difluoro-2-hydroxypropoxy)-7-(thiazol-2-yl)benzo[d]oxazol-2-yl)-3,6-diazabicyclo[3.1.1]heptan-6-ol], the IC50 with PDE4 is less than 100 nM. For the same compound, in data set [1], the “Residual ratio (% remaining for 30-minute reaction)” value was “B (B: 60% or more and less than 75%)”. As to `CC(O)C(F)(F)Oc1ccc(-c2nccs2)c2oc(N3CC4CC(C3)N4O)nc12` (single isomer, unassigned) [Example 373, 3-(4-(1,1-Difluoro-2-hydroxypropoxy)-7-(thiazol-2-yl)benzo[d]oxazol-2-yl)-3,6-diazabicyclo[3.1.1]heptan-6-ol], the IC50 in the data set with PDE4 was less than 100 nM. Moreover, the “Residual ratio (% remaining for 30-minute reaction)” value in data set [1] was “B (B: 60% or more and less than 75%)”. On to `c1ccc(Oc2ccc(-c3nccs3)c3oc(N4CC5CC(C4)N5)nc23)nc1` [Example 337, 2-(3,6-Diazabicyclo[3.1.1]heptan-3-yl)-4-(pyridin-2-yloxy)-7-(thiazol-2-yl)benzo[d]oxazole], for which the “Residual ratio (% remaining for 30-minute reaction)” value in data set [1] is “B (B: 60% or more and less than 75%)”.

As to `ON1C2CCC1CN(c1nc3c(OC(F)(F)F)c(Cl)cc(-c4nccs4)c3o1)C2` [Example 375, 3-(5-Chloro-7-(thiazol-2-yl)-4-(trifluoromethoxy)benzo[d]oxazol-2-yl)-3,8-diazabicyclo[3.2.1]octan-8-ol], the IC50 in the data set on PDE4 was less than 100 nM. Same read-out and setting: under `CC(O)(O)C(F)(F)Oc1ccc(-c2nccs2)c2oc(N3CC4CC(C3)N4)nc12` [Example 377, 1-((2-(3,6-Diazabicyclo[3.1.1]heptan-3-yl)-7-(thiazol-2-yl)benzo[d]oxazol-4-yl)oxy)-1,1-difluoropropane-2,2-diol] stands less than 100 nM; under `OC(c1ccc(-c2nccs2)c2oc(N3CC4CCC(C3)N4O)nc12)C(F)(F)F` (stereo not drawn) [Example 378, 3-(7-(Thiazol-2-yl)-4-(2,2,2-trifluoro-1-hydroxyethyl)benzo[d]oxazol-2-yl)-3,8-diazabicyclo[3.2.1]octan-8-ol], 100 to 1000 nM. The same measure, in the same setting: under `OC(c1ccc(-c2nccs2)c2oc(N3CC4CCC(C3)N4O)nc12)C(F)(F)F` (stereo not drawn) [Example 379, 3-(7-(Thiazol-2-yl)-4-(2,2,2-trifluoro-1-hydroxyethyl)benzo[d]oxazol-2-yl)-3,8-diazabicyclo[3.2.1]octan-8-ol] stands less than 100 nM; under `ON1C2CC1CN(c1nc3c(OC(F)(F)F)ccc(-c4nccs4)c3o1)C2` [Example 380, 3-(7-(Thiazol-2-yl)-4-(trifluoromethoxy)benzo[d]oxazol-2-yl)-3,6-diazabicyclo[3.1.1]heptan-6-ol], less than 100 nM; under `CC(C)(O)c1cc(-c2nccs2)c2oc(N3CC4CCC(C3)N4O)nc2c1C(F)(F)F` [Example 381, 3-(5-(2-Hydroxypropan-2-yl)-7-(thiazol-2-yl)-4-(trifluoromethyl)benzo[d]oxazol-2-yl)-3,8-diazabicyclo[3.2.1]octan-8-ol], more than 1000 nM. The same measure, in the same setting: in the case of `CC(O)c1cc(-c2nccs2)c2oc(N3CC4CCC(C3)N4O)nc2c1OC(F)(F)F` (stereo not drawn) [Example 383, 3-(5-(1-Hydroxyethyl)-7-(thiazol-2-yl)-4-(trifluoromethoxy)benzo[d]oxazol-2-yl)-3,8-diazabicyclo[3.2.1]octan-8-ol] it was more than 1000 nM.

Turning to `CC(O)c1cc(-c2nccs2)c2oc(N3CC4CCC(C3)N4O)nc2c1C(F)(F)F` (stereo not drawn) [Example 384, 3-(5-(1-Hydroxyethyl)-7-(thiazol-2-yl)-4-(trifluoromethyl)benzo[d]oxazol-2-yl)-3,8-diazabicyclo[3.2.1]octan-8-ol], the IC50 in the data set on PDE4 is more than 1000 nM. Take `CNS(=O)(=O)c1ccc(-c2nccs2)c2oc(N3CC4CC(C3)N4)nc12` [Example 386, 2-(3,6-Diazabicyclo[3.1.1]heptan-3-yl)-N-methyl-7-(thiazol-2-yl)benzo[d]oxazole-4-sulfonamide]: the IC50 in the data set with PDE4 is less than 100 nM.

`CN(C)S(=O)(=O)c1ccc(-c2nccs2)c2oc(N3CC4CC(C3)N4)nc12` [Example 388, 2-(3,6-Diazabicyclo[3.1.1]heptan-3-yl)-N,N-dimethyl-7-(thiazol-2-yl)benzo[d]oxazole-4-sulfonamide]: the IC50 in the data set on PDE4 was less than 100 nM. The same measure, in the same setting: under `CN(CCO)S(=O)(=O)c1ccc(-c2nccs2)c2oc(N3CC4CC(C3)N4)nc12` [Example 389, 2-(3,6-Diazabicyclo[3.1.1]heptan-3-yl)-N-(2-hydroxyethyl)-N-methyl-7-(thiazol-2-yl)benzo[d]oxazole-4-sulfonamide] stands less than 100 nM; under `O=S(=O)(c1ccc(-c2nccs2)c2oc(N3CC4CC(C3)N4)nc12)N1CCCC1` [Example 390, 2-(3,6-Diazabicyclo[3.1.1]heptan-3-yl)-4-(pyrrolidin-1-ylsulfonyl)-7-(thiazol-2-yl)benzo[d]oxazole], less than 100 nM.

Consider `COC(C)(C)C(F)(F)Oc1ccc(-c2nccs2)c2oc(N3CC4CC(C3)N4)nc12` [Example 393, 2-(3,6-Diazabicyclo[3.1.1]heptan-3-yl)-4-(1,1-difluoro-2-methoxy-2-methylpropoxy)-7-(thiazol-2-yl)benzo[d]oxazole], for which the IC50 with PDE4 is less than 100 nM. Still for that read-out and setting: in the case of `NS(=O)(=O)c1ccc(-c2nccs2)c2oc(N3CC4CC(C3)N4)nc12` [Example 396, 2-(3,6-Diazabicyclo[3.1.1]heptan-3-yl)-7-(thiazol-2-yl)benzo[d]oxazole-4-sulfonamide] it was less than 100 nM; in that of `O=S1(=O)CCN(c2ccc(-c3nccs3)c3oc(N4CC5CC(C4)N5)nc23)CC1` [Example 398, 4-(2-(3,6-Diazabicyclo[3.1.1]heptan-3-yl)-7-(thiazol-2-yl)benzo[d]oxazol-4-yl)thiomorpholine 1,1-dioxide], less than 100 nM.

`CCC(F)(F)Oc1ccc(-c2nccs2)c2oc(N3CC4CC(C3)N4)nc12` [Example 402, 2-(3,6-Diazabicyclo[3.1.1]heptan-3-yl)-4-(1,1-difluoropropoxy)-7-(thiazol-2-yl)benzo[d]oxazole]: in the data set with PDE4, the IC50 was less than 100 nM. Same read-out and setting: in the case of `FC(F)(Oc1ccc(-c2nccs2)c2oc(N3CC4CC(C3)N4)nc12)c1nc2ccccc2o1` [Example 403, 4-(Benzo[d]oxazol-2-yldifluoromethoxy)-2-(3,6-diazabicyclo[3.1.1]heptan-3-yl)-7-(thiazol-2-yl)benzo[d]oxazole] it was less than 100 nM; in that of `FC(F)(/C=C/c1cccnc1)Oc1ccc(-c2nccs2)c2oc(N3CC4CC(C3)N4)nc12` [Example 406, (E)-2-(3,6-diazabicyclo[3.1.1]heptan-3-yl)-4-((1,1-difluoro-3-(pyridin-3-yl)allyl)oxy)-7-(thiazol-2-yl)benzo[d]oxazole], less than 100 nM; in that of `CN(CCO)C(=O)C(F)(F)Oc1ccc(-c2nccs2)c2oc(N3CC4CC(C3)N4)nc12` [Example 407, 2-((2-(3,6-Diazabicyclo[3.1.1]heptan-3-yl)-7-(thiazol-2-yl)benzo[d]oxazol-4-yl)oxy)-2,2-difluoro-N-(2-hydroxyethyl)-N-methylacetamide], less than 100 nM.

On to `CN(C)C(=O)C(F)(F)Oc1ccc(-c2nccs2)c2oc(N3CC4CC(C3)N4)nc12` [Example 408, 2-((2-(3,6-Diazabicyclo[3.1.1]heptan-3-yl)-7-(thiazol-2-yl)benzo[d]oxazol-4-yl)oxy)-2,2-difluoro-N,N-dimethylacetamide], for which the IC50 with PDE4 was less than 100 nM. Take `c1csc(-c2ccc(C3CCC3)c3nc(N4CC5CC(C4)N5)oc23)n1` [Example 414, 2-(3,6-Diazabicyclo[3.1.1]heptan-3-yl)-4-cyclobutyl-7-(thiazol-2-yl)benzo[d]oxazole]: the IC50 with PDE4 is less than 100 nM. The same measure, in the same setting: in the case of `c1csc(-c2ccc(N3CCCC3)c3nc(N4CC5CC(C4)N5)oc23)n1` [Example 415, 2-(3,6-Diazabicyclo[3.1.1]heptan-3-yl)-4-(pyrrolidin-1-yl)-7-(thiazol-2-yl)benzo[d]oxazole] it was less than 100 nM.
